# Test results as given in ChEMBL document CHEMBL5712074, “Divergent clonal evolution of castration-resistant neuroendocrine prostate cancer” (Nat Med, 2016).
# Activity calls are given as the source filed them. No cut-off for these calls is given here.
# Tested on: NCI-H660
# Experiment: Cytotoxicity against human NCI-H660 cells assessed as decrease in cell viability at 5 to 10 uM incubated for 48 hrs by CellTiter-Blue assay
# Type: functional, cell-based
# Details: dose 5-10 µM
compound,measurement,value
CCCc1cc(C)[nH]c(=O)c1CNC(=O)c1cc(-c2ccnc(N3CCN(C)CC3)c2)cc2c1cnn2C(C)C,Activity,Active
